# Data as given in PMC8962522, “Direct interaction of TrkA/CD44v3 is essential for NGF-promoted aggressiveness of breast cancer cells” (Journal of Experimental & Clinical Cancer Research : CR, 2022).
# System: MDA-MB-468 cells
# Assay: Transwell invasion assay through collagen I, MDA-MB-468
# Type: cell-based
# Settings: collagen 1 Transwell, 16 h after treatment; "these effects" = decrease in basal and NGF-induced invasion
# Description: Transwell invasion assays were performed to assess cancer cell invasion in a Transwell chamber containing a collagen I-coated membrane (12-wells with inserts and […] pore size membranes; Corning, Life Sciences). A total of 1 × 10^6 starved cells (0.1% in SVF medium) were plated in the top chamber and incubated for 10 min before treatment with a peptide (50 ng/mL for 30 min); NGF was added to the lower chamber. […] and stained with Hoechst 33258 (1 mg/mL) for 30 min, and the cells that invaded the lower surface through the pores of the inserts were automatically counted under an inverted microscope with ImageJ software (with an in-house-developed plug-in).
# Supplementary file 13046_2022_2314_MOESM3_ESM.pdf: Additional file 3: Supplementary Figure 1. Validation of the ectopic expression of CD44 and/or TrkA in COS-7 cells. The expression of all CD44 isoforms (A), CD44 variant 3 (B), CD44 variant 6 (C) and TrkA ([…]; D) was evaluated by RT–qPCR (normalized using PUM-1). No expression of CD44, CD44 variants [3 or 6] or TrkA was detected in COS-7 cells (A-D) compared with that in cells transfected with the expression plasmid carrying each protein. […] Quantification of the PLA results was performed using ImageJ software (30 randomly chosen fields per condition of three different experiments). […] CD44v3 and CD44v6 levels at the plasma membrane were assessed by flow cytometry (A-D). […]
sequence,measurement,value
"IDDDEDFISST [Peptide 4, mimetic peptide 4 (…) corresponding to the C-terminal region of CD44v3]",effect on invasion of MDA-MB-468 cells,These effects on invasion were also observed in the MDA-MB-468 triple-negative breast cancer cell line
